# ChEMBL document CHEMBL3886529, “PDE10a inhibitors for the treatment of type II diabetes” (2016)
# Target: T1, cAMP and cAMP-inhibited cGMP 3',5'-cyclic phosphodiesterase 10A (Rattus norvegicus, UniProt Q9QYJ6)
# T1 sequence (Q9QYJ6 whole entry): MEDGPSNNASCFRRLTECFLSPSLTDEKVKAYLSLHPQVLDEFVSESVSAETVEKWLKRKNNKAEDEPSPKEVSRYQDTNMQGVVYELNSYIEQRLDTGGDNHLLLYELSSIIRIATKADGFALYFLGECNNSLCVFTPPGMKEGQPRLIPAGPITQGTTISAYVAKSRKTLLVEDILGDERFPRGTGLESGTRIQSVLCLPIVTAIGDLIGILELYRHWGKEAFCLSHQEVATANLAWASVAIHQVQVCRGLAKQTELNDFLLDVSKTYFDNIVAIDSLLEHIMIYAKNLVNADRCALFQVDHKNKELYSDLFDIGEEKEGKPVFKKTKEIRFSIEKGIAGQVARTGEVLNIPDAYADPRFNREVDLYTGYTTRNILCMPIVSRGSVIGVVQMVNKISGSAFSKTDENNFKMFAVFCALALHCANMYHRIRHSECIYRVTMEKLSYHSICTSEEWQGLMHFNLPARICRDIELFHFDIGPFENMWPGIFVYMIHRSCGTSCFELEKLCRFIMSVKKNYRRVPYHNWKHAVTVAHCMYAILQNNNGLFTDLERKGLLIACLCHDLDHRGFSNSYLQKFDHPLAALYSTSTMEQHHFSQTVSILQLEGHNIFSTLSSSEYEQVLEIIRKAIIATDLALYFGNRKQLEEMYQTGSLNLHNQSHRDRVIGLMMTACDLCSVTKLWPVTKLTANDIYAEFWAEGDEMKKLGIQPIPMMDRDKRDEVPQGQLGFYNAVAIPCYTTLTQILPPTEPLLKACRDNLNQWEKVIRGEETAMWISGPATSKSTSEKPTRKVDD
# Assay: In Vitro Assay rPDE10: Rat recombinant PDE10a (rPDE10a) was expressed in Sf9 cells using a recombinant rPDE10a baculovirus construct. Cells were harvested after 48 h of infection and the rPDE10a protein was purified by metal chelate chromatography on Ni-sepharose 6FF. Tested compounds were dissolved and diluted in 100% DMSO to a concentration 100 fold of the final concentration in the assay. Compound dilutions (0.4 uL) were added in 384 well plates to 20 uL of incubation buffer (50 mM Tris pH 7.8, 8.3 mM MgCl2, 1.7 mM EGTA). 10 uL of rPDE10a enzyme in incubation buffer was added and the reaction was started by addition of 10 uL substrate to a final concentration of 60 nM cAMP and 0.008 uCi 3H-cAMP. The reaction was incubated for 60 min at rt. After incubation, the reaction was stopped with 20 uL of 17.8 mg/mL PDE SPA beads. After sedimentation of the beads during 30 min the radioactivity was measured in a Perkin Elmer Topcount scintillation counter and results were expressed as cpm. For blank values the enz
row,SMILES,IC50 [µM]
1,c1ccc2nc(OCc3cn4c(C5CCNCC5)cnc(N5CCOCC5)c4n3)ccc2c1,0.562
2,O=C(O)c1cc(/C=C/c2cn3ccnc(N4CCOCC4)c3n2)nc2ccccc12,0.009
3,O=C1Nc2ccc(-c3cnc(N4CCOCC4)c4nc(CCc5ccc6ccccc6n5)cn34)cc2C1(F)F,0.019
